# Assay results published in PMC10564737, “Structure-based design of a phosphotyrosine-masked covalent ligand targeting the E3 ligase SOCS2” (Nature Communications, 2023).
# “And” between values parts separate entries of the source, which are not always exact repeats. Equal entries are not always repeated.
# Target: T1, SBC2 (Homo sapiens, UniProt O14508)
# T1 construct: SOCS2 (amino acids 32–198); His6 (N, cleaved yes); made in house; host or cells: E. coli BL21(DE3)
# Test: Covalent fluorescence polarization (FP) probe displacement assay
# Type: binding
# Conditions: for Anisotropy based on Raw Data (485): Cycle 7 (30 min)
# Text: With the specific covalent modification of Cys111 established, we decided to fully characterize MN551 as a covalent SOCS2 inhibitor. […] (Fig. 2g, h, Supplementary Fig. 9). Due to the covalent nature of the competing inhibitor, a time-dependent reduction in the fraction of protein-bound probe is observed. […] This value illustrates reasonable specificity for a covalent inhibitor, with nonetheless scope for future optimization. In addition to characterizing the kinetic covalency parameters, we have also assessed the stability of the MN551 by monitoring its reactivity (half-life >70 min) with reduced glutathione (GSH) (Supplementary Fig. 10)[35].
# To monitor the SBC2-ligand binding kinetics we designed a fluorescein-labeled small-molecule probe - compound 26. The fluorescence polarization (anisotropy) of a threefold serial dilution of 50 µM SBC2 in 10 nM of the probe in 100 mM HEPES pH 7.5, 50 mM NaCl, 0.5 mM TCEP, 2% DMSO was measured to determine the KL (Supplementary Fig. 9A) (BMG Labtech PHERAstar – firmware v1.33). Protein titration and the curves were fitted using GraphPad Prism 9, using one-site fitting models to determine the probe binding constant, KL. Samples were run in triplicate in 384 well plates, using a total volume per well of 16 μL. The bound fraction of the probe is measure using the equation:1 Fb=Af−A/Af−Ab Where,
# A time-dependent reduction in probe anisotropy were measured for a 2-fold serial dilution of […] compound MN551 in 10 nM probe +300 μM SBC2. To determine the initial reversible binding affinity, the initial bound fraction of the probe at time = 0, Fbo (the y-intercept in Fb v/s Time plot, Supplementary Fig. 9B) was plotted against MN551 concentration, and the obtained IC50 is then converted to Ki (Supplementary Fig. 9C)[17]. The slope from Fb versus time graph when divided by Fbo gives rate of covalency, kobs. A plot of kobs v/s MN551 concentration using Michaelis–Menten model of GraphPad Prism 9, provides the parameters kinact (maximum potential rate of inactivation) and KI (concentration of MN551 at which kobs = kinact/2) (Supplementary Fig. 9D, E).
# The observed first-order rate constant, kobs is related to KI and kinact by the equation:2 kobs=kinactI/KI+I
# At [I]«[KI] the above equation is converted to3 […]
# The slope from the plot of kobs against concentration of MN551 gives us the covalent efficiency parameter kinact/KI (Supp Fig. 9F)[30],[33].
# [1] = MN551 48.4003 nM, Cycle 12 (55 min)
# [2] = MN551 67.7604 nM, Cycle 12 (55 min)
# [3] = MN551 94.8645 nM, Cycle 12 (55 min)
# [4] = MN551 132.81 nM, Cycle 6 (25 min)
# [5] = MN551 132.81 nM, Cycle 12 (55 min)
# [6] = MN551 185.934 nM, Cycle 6 (25 min)
# [7] = MN551 185.934 nM, Cycle 12 (55 min)
# T1 sequence (O14508 32-198): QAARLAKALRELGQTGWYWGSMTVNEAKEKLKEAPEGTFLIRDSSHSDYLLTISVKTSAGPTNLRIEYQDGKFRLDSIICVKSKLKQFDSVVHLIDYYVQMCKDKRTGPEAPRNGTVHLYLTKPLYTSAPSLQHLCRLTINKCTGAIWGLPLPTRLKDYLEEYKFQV
# T1 sequence (Q15370 1-104 partner limits assumed): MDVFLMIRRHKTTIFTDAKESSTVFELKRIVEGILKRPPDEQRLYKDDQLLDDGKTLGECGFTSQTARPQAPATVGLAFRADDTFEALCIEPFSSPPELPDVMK
# T1 sequence (Q15369 17-112 partner limits assumed): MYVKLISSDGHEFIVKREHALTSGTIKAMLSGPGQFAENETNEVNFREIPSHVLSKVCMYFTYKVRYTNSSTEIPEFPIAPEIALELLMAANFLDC
smiles,measurement,setting,value
O=C(CCl)Nc1cccc(CNC(=O)[C@H](Cc2ccc(OP(=O)(O)O)cc2)NC(=O)Cc2ccc(F)cc2)c1 [MN551],"Fb, fraction bound","MN551 48.4003 nM, Cycle 2 (5 min)",1.049 and 0.9991 and 1.04
same,Anisotropy,[1],281.3 and 275.7 and 274.4
same,Fb,[1],1.033 and 1.011 and 0.9942
same,"Anisotropy normalised (0 nM MN551 = 1, free probe = 0)","MN551 48.4003 nM, Cycle 19 (90 min), n=1",1.03 and 1.015 (2×)
same,"Anisotropy normalised (0 nM MN551 = 1, free probe = 0)","MN551 48.4003 nM, Cycle 20 (95 min), n=1",1.011 and 0.999 and 0.9749
same,Anisotropy based on Raw Data (485),MN551 48.8281 nM,280.9 and 281.7 and 280.6
same,"Fb, fraction bound","MN551 48.8281 nM, Cycle 2 (5 min)",1.013 and 1.049 and 1.036
same,Anisotropy,"MN551 48.8281 nM, Cycle 11 (50 min)",280 and 280.2 and 277
same,Anisotropy,"MN551 48.8281 nM, Cycle 12 (55 min)",279.7 and 280.1 and 278.6
same,"Anisotropy data 485,520,520","MN551 48.8281 nM, Cycle 18 (85 min), n=1",276.3 and 276.1 and 275.6
same,Anisotropy based on Raw Data (485),MN551 67.7604 nM,278.6 and 278.4 and 280
same,"Normalised anisotropy (0 nM MN551 = 1, free probe = 0)","MN551 67.7604 nM, Cycle 13 (60 min), n=1",1.005 and 0.9558 and 1.011
same,"Normalised anisotropy (0 nM MN551 = 1, free probe = 0)","MN551 67.7604 nM, Cycle 14 (65 min), n=1",1.03 and 1.001 and 1.016
same,"Fb, fraction bound","MN551 67.7604 nM, Cycle 2 (5 min)",1.032 and 1.001 and 1.045
same,"Fb, fraction bound","MN551 67.7604 nM, Cycle 3 (10 min)",1.036
same,Anisotropy,[2],277.4 and 276.4 and 273
same,Fb,[2],0.9963 and 1.017 and 0.9808
same,"Anisotropy normalised (0 nM MN551 = 1, free probe = 0)","MN551 67.7604 nM, Cycle 19 (90 min), n=1",1.021 and 1.031 and 0.9864
same,"Anisotropy normalised (0 nM MN551 = 1, free probe = 0)","MN551 67.7604 nM, Cycle 20 (95 min), n=1",0.999 and 0.9767 and 0.9903
same,Anisotropy based on Raw Data (485),MN551 94.8645 nM,276.5 and 276.4 and 275
same,"Normalised anisotropy (0 nM MN551 = 1, free probe = 0)","MN551 94.8645 nM, Cycle 13 (60 min), n=1",0.9841 and 0.9576 and 0.9759
same,"Normalised anisotropy (0 nM MN551 = 1, free probe = 0)","MN551 94.8645 nM, Cycle 14 (65 min), n=1",1.002 and 0.9934 and 0.9731
same,"Normalised anisotropy (0 nM MN551 = 1, free probe = 0)","MN551 94.8645 nM, Cycle 15 (70 min), n=1",1.0078
same,"Fb, fraction bound","MN551 94.8645 nM, Cycle 2 (5 min)",1.026 and 1.011 and 0.9914
same,"Fb, fraction bound","MN551 94.8645 nM, Cycle 3 (10 min)",1.0139 and 1.041 and 0.9705
same,"Anisotropy data 485,520,520","MN551 94.8645 nM, Cycle 6 (25 min)",273.7 and 266.4 and 265.9
same,Anisotropy,[3],274 and 273.4 and 270.5
same,Fb,[3],0.9646 and 0.9885 and 0.9568
same,"Anisotropy normalised (0 nM MN551 = 1, free probe = 0)","MN551 94.8645 nM, Cycle 19 (90 min), n=1",0.9933 and 1.003 and 0.9475
same,"Anisotropy normalised (0 nM MN551 = 1, free probe = 0)","MN551 94.8645 nM, Cycle 20 (95 min), n=1",0.9691 and 0.9574 and 0.9304
same,Anisotropy based on Raw Data (485),MN551 97.6562 nM,278.3 and 282.9 and 277.5
same,"Fb, fraction bound","MN551 97.6562 nM, Cycle 2 (5 min)",1.002 and 1.056 and 1.014
same,Anisotropy,"MN551 97.6562 nM, Cycle 11 (50 min)",278.8 and 281.3 and 277
same,Anisotropy,"MN551 97.6562 nM, Cycle 12 (55 min)",279.1 and 279.7 and 276.5
same,"Anisotropy data 485,520,520","MN551 97.6562 nM, Cycle 18 (85 min), n=1",274.3 and 275.7 and 270.8
same,Anisotropy based on Raw Data (485),MN551 132.81 nM,277.4 and 277.3 and 272.7
same,"Normalised anisotropy (0 nM MN551 = 1, free probe = 0)","MN551 132.81 nM, Cycle 13 (60 min), n=1",0.9411 and 0.9327 and 0.945
same,"Normalised anisotropy (0 nM MN551 = 1, free probe = 0)","MN551 132.81 nM, Cycle 14 (65 min), n=1",0.9679 and 0.9614 and 0.9597
same,"Normalised anisotropy (0 nM MN551 = 1, free probe = 0)","MN551 132.81 nM, Cycle 15 (70 min), n=1",0.9669 and 0.9677 and 0.9327
same,"Fb, fraction bound","MN551 132.81 nM, Cycle 2 (5 min)",1.001 and 1.004 and 1.003
same,"Fb, fraction bound","MN551 132.81 nM, Cycle 3 (10 min)",0.9889 and 1.004 and 0.9829
same,"Anisotropy data 485,520,520",[4],272.9 and 266.7 and 268.7
same,Fb,[4],1.0105 and 1.013 and 1.036
same,Anisotropy,[5],272.8 and 270.5 and 270
same,Fb,[5],0.9534 and 0.9607 and 0.952
same,"Anisotropy normalised (0 nM MN551 = 1, free probe = 0)","MN551 132.81 nM, Cycle 19 (90 min), n=1",0.9528 and 0.958 and 0.9524
same,"Anisotropy normalised (0 nM MN551 = 1, free probe = 0)","MN551 132.81 nM, Cycle 20 (95 min), n=1",0.9516 and 0.9273 and 0.9285
same,Anisotropy based on Raw Data (485),MN551 185.934 nM,278.1 and 275.4 and 274.1
same,"Normalised anisotropy (0 nM MN551 = 1, free probe = 0)","MN551 185.934 nM, Cycle 13 (60 min), n=1",0.927 and 0.9051 and 0.9324
same,"Normalised anisotropy (0 nM MN551 = 1, free probe = 0)","MN551 185.934 nM, Cycle 14 (65 min), n=1",0.9406 and 0.935 and 0.929
same,"Normalised anisotropy (0 nM MN551 = 1, free probe = 0)","MN551 185.934 nM, Cycle 15 (70 min), n=1",0.9561 and 0.9184 and 0.9202
same,"Fb, fraction bound","MN551 185.934 nM, Cycle 3 (10 min)",0.9759 and 0.9879 and 0.9619
same,"Anisotropy data 485,520,520",[6],271.2 and 265.9 and 264.5
same,Fb,[6],1.005 and 0.998 and 1.018
same,Anisotropy,[7],270.4 and 269.3 and 268.1
same,Fb,[7],0.931 and 0.9492 and 0.9338
same,"Anisotropy normalised (0 nM MN551 = 1, free probe = 0)","MN551 185.934 nM, Cycle 19 (90 min), n=1",0.9172 and 0.936 and 0.9397
same,"Anisotropy normalised (0 nM MN551 = 1, free probe = 0)","MN551 185.934 nM, Cycle 20 (95 min), n=1",0.9014 and 0.9041 and 0.8899
same,Anisotropy based on Raw Data (485),MN551 195.312 nM,281 and 276.5 and 273
same,"Fb, fraction bound","MN551 195.312 nM, Cycle 2 (5 min)",0.9639 and 1.006 and 1.008
same,Anisotropy,"MN551 195.312 nM, Cycle 12 (55 min)",272.9 and 273.5 and 273
same,Anisotropy based on Raw Data (485),MN551 260.308 nM,270.2 and 268.2 and 264.5
same,"Normalised anisotropy (0 nM MN551 = 1, free probe = 0)","MN551 260.308 nM, Cycle 13 (60 min), n=1",0.8241 and 0.8101 and 0.8658
same,"Normalised anisotropy (0 nM MN551 = 1, free probe = 0)","MN551 260.308 nM, Cycle 14 (65 min), n=1",0.8651 and 0.8427 and 0.8474
same,"Normalised anisotropy (0 nM MN551 = 1, free probe = 0)","MN551 260.308 nM, Cycle 15 (70 min), n=1",0.8655 and 0.8321 and 0.8452
same,"Fb, fraction bound","MN551 260.308 nM, Cycle 3 (10 min)",0.9027 and 0.9023 and 0.8716
same,"Anisotropy data 485,520,520","MN551 260.308 nM, Cycle 6 (25 min)",268.3 and 257.5 and 257.9
